The values that follow are results of earlier work, collected in patent publication US20190000808A1, “COMPOSITION AND METHODS FOR THE TREATMENT OF BLEPHOPHAROPTOSIS” (Allergan, Inc., priority 2015, published 2019).

The structures appear in SMILES notation.

Data set [1] has as its system alpha-1 adrenergic receptors on Muller's muscle. Particulars: single drop, typically 2.5%; temporary reversal of ptosis.

As for `CC[C@@H]1C(=O)OC[C@@H]1Cc1cncn1C` [Pilocarpine, (3S,4R)-3-Ethyl-4((1-methyl-1H-imidazol-5-yl)methyl)dihydrofuran-2(3H)-one], the tolerability result with accommodation of the eye (topical concentrations above 0.5%, side effects red eyes, ocular pain, brow ache, headache) was “not tolerated”. For the same molecule, in the data set on accommodation of the eye (topical concentrations below 0.5%), the “effect on accommodation of the eye” value is “minimal effect”.
For the molecule `CNC[C@H](O)c1cccc(O)c1` [phenylephrine], in data set [1], the eyelid elevation result was “causes eyelid elevation”.
